Among the data in US11111237B2, “Bicyclic compound and use thereof” (SK BIOPHARMACEUTICALS CO., LTD., priority 2019, dated 2021) are IC50 values, retold here.

By IC50 is commonly meant the concentration at which inhibition is half-maximal. Low values mean greater potency, high ones weaker potency.

Chain of PRMT5-MEP50 enzyme complex (O14744 2-637): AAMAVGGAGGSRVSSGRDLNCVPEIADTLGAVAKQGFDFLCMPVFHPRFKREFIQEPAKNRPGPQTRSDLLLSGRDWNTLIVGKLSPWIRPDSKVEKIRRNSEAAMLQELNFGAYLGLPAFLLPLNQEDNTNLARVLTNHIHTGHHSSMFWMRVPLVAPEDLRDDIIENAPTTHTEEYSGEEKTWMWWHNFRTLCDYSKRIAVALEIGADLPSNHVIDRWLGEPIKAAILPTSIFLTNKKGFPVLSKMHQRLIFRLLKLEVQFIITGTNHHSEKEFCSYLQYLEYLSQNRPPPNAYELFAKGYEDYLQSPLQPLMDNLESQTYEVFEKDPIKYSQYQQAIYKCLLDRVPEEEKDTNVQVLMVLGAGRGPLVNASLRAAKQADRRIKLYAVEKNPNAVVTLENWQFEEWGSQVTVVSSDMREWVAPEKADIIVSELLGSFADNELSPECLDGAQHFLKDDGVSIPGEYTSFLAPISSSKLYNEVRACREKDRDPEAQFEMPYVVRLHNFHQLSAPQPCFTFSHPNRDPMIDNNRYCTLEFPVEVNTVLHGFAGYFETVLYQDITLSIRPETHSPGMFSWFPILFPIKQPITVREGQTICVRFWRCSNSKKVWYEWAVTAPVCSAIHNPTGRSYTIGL
Chain of PRMT5-MEP50 enzyme complex (Q9BQA1 2-342 partner): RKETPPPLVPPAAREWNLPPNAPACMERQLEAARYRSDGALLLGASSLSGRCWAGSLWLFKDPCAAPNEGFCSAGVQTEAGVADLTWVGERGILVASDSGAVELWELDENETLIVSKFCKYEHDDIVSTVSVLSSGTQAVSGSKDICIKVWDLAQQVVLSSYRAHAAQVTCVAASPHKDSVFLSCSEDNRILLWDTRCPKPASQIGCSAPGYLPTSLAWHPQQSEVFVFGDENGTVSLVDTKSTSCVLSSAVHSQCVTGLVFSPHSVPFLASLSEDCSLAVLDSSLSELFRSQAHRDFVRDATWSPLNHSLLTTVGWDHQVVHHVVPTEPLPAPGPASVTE

The target of this assay is PRMT5-MEP50 enzyme complex (Homo sapiens (Human), UniProt O14744). Kind of assay: PRMT5 enzyme activity in vitro assay (methylation of histone H4R3, ELISA absorbance at 450 nm). It counts as biochemical. To be noted: SAM, histone H4 peptide, room temperature 2 hours, 8 points from 10 μM to 0.128 nM. As to the method:
Method for Measuring Enzyme Activity
In vitro assay: PRMT5-MEP50 enzyme complex, cofactor S-adenosylmethionine (SAM) and histone H4 peptide were reacted in vitro, and methylation of arginine (H4R3)—which is the third amino acid of histone H4—was measured in order to measure the enzyme activity of PRMT5.
Reagents: PRMT5-MEP50 enzyme complex (Catalog No. 51045), blocking buffer (52100-B), histone methyltransferase reaction buffer 2 (4×HMT assay buffer 2, Catalog No. 52170), and primary antibody (primary antibody 4-3, Catalog No. 52150) were purchased from BPS Bioscience (USA). The histone H4 peptide (1-20 amino acids) was custom made by Komabiotech (Korea) and used. S-adenosylmethionine was purchased from NEB (New England Biolabs, USA, Catalog No. B9003S). Plates for coating histone H4 peptide, washing buffer and color development reagent were purchased from the following vendors: Plate (Immobilizer™-Amino Plate, NUNC, Denmark, Catalog No. 436023), carbonate-bicarbonate buffer (Sigma-Aldrich, USA, Catalog No. C3041), washing buffer (10×TBST, Biosesang, Korea, Catalog No. T2005), TMB ELISA substrate (Abcam, UK, Catalog No. ab210902), horseradish peroxidase (HRP)-conjugated antibody (Abcam, UK, Catalog No. ab6721).
Experimental procedure: The histone H4 peptide was diluted with carbonate-bicarbonate buffer and prepared to 100 μg/mL, and then dispensed onto the plate per 100 μL and reacted at 37° C. for 1 hour. PRMT5-MEP50 enzyme complex and S-adenosylmethionine were diluted with histone methyltransferase reaction buffer to prepare 5 μg/mL and 2 μM, respectively, and then 20 μL of PRMT5-MEP50 enzyme complex and 25 μL of S-adenosylmethionine were dispensed onto the plate prepared above. 5 μL of the compound diluted with 10% dimethyl sulfoxide solution was added thereto and reacted at room temperature for 2 hours (final volume=50 μL). The concentration of the compound was diluted 1:5 from 10 μM until the lowest concentration of 0.128 nM, and 8 points were used for the test. After preparing the primary antibody by diluting 1:2000 with blocking buffer, 100 μL was added to the plate and reacted at room temperature for 1 hour. After preparing horseradish peroxidase-conjugated antibody by diluting 1:10,000 with blocking buffer, 100 μL was added to the plate and reacted at room temperature for 1 hour. 100 μL of TMB substrate was added and reacted for 3 minutes at room temperature, and 100 μL of 1 N sulfuric acid was then added to terminate the reaction. Then, the absorbance at 450 nm was measured to calculate the IC50 value of the compound. (+++: 1 to 100 nM, ++: greater than 100 to 1,000 nM, +: greater than 1,000 to 10,000 nM)
A general note: In an ELISA, binding on a coated surface is turned into a signal by an enzyme label.
`COc1ccc2c(c1)CCCN(CC(O)CN1CCc3ccccc3C1)C2=O` (stereo not shown) [Example 2, 2-[3-(3,4-dihydro-1H-isoquinolin-2-yl)-2-hydroxy-propyl]-7-methoxy-4,5-dihydro-3H-2-benzazepin-1-one] had an IC50 of 100 to 1000 nM.

`O=C1c2ccc(OC(F)(F)F)cc2CCCN1CC(O)CN1CCc2ccccc2C1` (stereo not shown) [Example 4, 2-[3-(3,4-dihydro-1H-isoquinolin-2-yl)-2-hydroxy-propyl]-7-(trifluoromethoxy)-4,5-dihydro-3H-2-benzazepin-1-one]: the IC50 fell in the range of 100 to 1000 nM.

`O=C1c2ccc(C(F)(F)F)cc2OCCN1C[C@H](O)CN1CCc2ccccc2C1` [Example 5, 4-[(2R)-3-(3,4-dihydro-1H-isoquinolin-2-yl)-2-hydroxy-propyl]-8-(trifluoromethyl)-2,3-dihydro-1,4-benzoxazepin-5-one] came in with an IC50 of 100 to 1000 nM.

`O=C1c2ccc(OC(F)(F)F)cc2CCCN1C[C@H](O)CN1CCc2ccccc2C1` [Example 6, 2-[(2R)-3-(3,4-dihydro-1H-isoquinolin-2-yl)-2-hydroxy-propyl]-7-(trifluoromethoxy)-4,5-dihydro-3H-2-benzazepin-1-one]: the 50% inhibitory concentration (IC50) is 1 to 100 nM.

In turn, `CCOc1ccc2c(c1)CCCN(C[C@H](O)CN1CCc3ccccc3C1)C2=O` [Example 7, 2-[(2R)-3-(3,4-dihydro-1H-isoquinolin-2-yl)-2-hydroxy-propyl]-7-ethoxy-4,5-dihydro-3H-2-benzazepin-1-one] had a half-maximal inhibitory concentration (IC50) of 100 to 1000 nM.

Take `O=C1c2ccc(OS(=O)(=O)C(F)(F)F)cc2CCCN1C[C@H](O)CN1CCc2ccccc2C1` [Example 8, [2-[(2R)-3-(3,4-dihydro-1H-isoquinolin-2-yl)-2-hydroxy-propyl]-1-oxo-4,5-dihydro-3H-2-benzazepin-7-yl]trifluoromethanesulfonate]: the IC50 is 100 to 1000 nM.

Take `N#Cc1ccc2c(c1)CCCN(C[C@H](O)CN1CCc3ccccc3C1)C2=O` [Example 9, 2-[(2R)-3-(3,4-dihydro-1H-isoquinolin-2-yl)-2-hydroxy-propyl]-1-oxo-4,5-dihydro-3H-2-benz azepin-7-carbonitrile]: the half-maximal inhibitory concentration (IC50) was in the range of 100 to 1000 nM.

Compound `Cc1ccc2c(c1)OCCN(C[C@H](O)CN1CCc3ccccc3C1)C2=O` [Example 10, 4-[(2R)-3-(3,4-dihydro-1H-isoquinolin-2-yl)-2-hydroxy-propyl]-8-methyl-2,3-dihydro-1,4-benzoxazepin-5-one] showed an IC50 of 100 to 1000 nM.

In the case of `CC(C)Cc1ccc2c(c1)OCCN(C[C@H](O)CN1CCc3ccccc3C1)C2=O` [Example 12, 4-[(2R)-3-(3,4-dihydro-1H-isoquinolin-2-yl)-2-hydroxy-propyl]-8-isobutyl-2,3-dihydro-1,4-benzoxazepin-5-one], the IC50 lay in the range of 1 to 100 nM.

With `O=C1c2ccc(CCC(F)(F)F)cc2OCCN1C[C@H](O)CN1CCc2ccccc2C1` [Example 13, 4-[(2R)-3-(3,4-dihydro-1H-isoquinolin-2-yl)-2-hydroxy-propyl]-8-(3,3,3-trifluoropropyl)-2,3-dihydro-1,4-benzoxazepin-5-one], the half-inhibitory concentration (IC50) fell in the range of 1 to 100 nM.

As for `CC(C)(C)OC(=O)N1CC=C(c2ccc3c(c2)OCCN(C[C@H](O)CN2CCc4ccccc4C2)C3=O)CC1` [Example 14, Tert-butyl 4-[4-[(2R)-3-(3,4-dihydro-1H-isoquinolin-2-yl)-2-hydroxy-propyl]-5-oxo-2,3-dihydro-1,4-benzoxazepin-8-yl]-3,6-dihydro-2H-pyridine-1-carboxylate], the IC50 lay in the range of 100 to 1000 nM.

For the compound `O=C1c2ccc(C3=CCNCC3)cc2OCCN1C[C@H](O)CN1CCc2ccccc2C1` [Example 15, 4-[(2R)-3-(3,4-dihydro-1H-isoquinolin-2-yl)-2-hydroxy-propyl]-8-(1,2,3,6-tetrahydropyridin-4-yl)-2,3-dihydro-1,4-benzoxazepin-5-one], the 50% inhibitory concentration (IC50) was in the range of 1 to 100 nM.

`CC(=O)N1CC=C(c2ccc3c(c2)OCCN(C[C@H](O)CN2CCc4ccccc4C2)C3=O)CC1` [Example 16, 8-(1-acetyl-3,6-dihydro-2H-pyridin-4-yl)-4-[(2R)-3-(3,4-dihydro-1H-isoquinolin-2-yl)-2-hydroxy-propyl]-2,3-dihydro-1,4-benzoxazepin-5-one]: the half-inhibitory concentration (IC50) was in the range of 1 to 100 nM.
